pIC50: −log10 of the molar value.
Columns and labels:
Format in all cases: biochemical
[1] = target: T1, reuptake of serotonine (5-HT) in synaptosomes (Rattus norvegicus, UniProt P31652); assay: Inhibition of 5-HT reuptake in synaptosomes; conditions: 3H-5-HT, read-out: 5-HT-uptake IC50
T1 construct: serotonine (5-HT) in synaptosomes; from tissue
Experimental: (§1) Compounds were tested for their ability to inhibit the reuptake of the monoamine neurotransmitters dopamine (DA) noradrenaline (NA) and serotonine (5-HT) in synaptosomes as described in WO 97/16451 (NeuroSearch A/S).
(§2) The test values are given as IC50 (the concentration (μM) of the test substance which inhibits the specific binding of ^3H-DA, ^3H-NA, or ^3H-5-HT by 50%).

[2] = target: T2, reuptake of dopamine (DA) in synaptosomes (Rattus norvegicus, UniProt P23977); assay: Inhibition of DA reuptake in synaptosomes; conditions: 3H-DA, read-out: DA-uptake IC50
T2 construct: in synaptosomes as described in WO 97/16451; from tissue
T2 sequence (P23977 whole entry): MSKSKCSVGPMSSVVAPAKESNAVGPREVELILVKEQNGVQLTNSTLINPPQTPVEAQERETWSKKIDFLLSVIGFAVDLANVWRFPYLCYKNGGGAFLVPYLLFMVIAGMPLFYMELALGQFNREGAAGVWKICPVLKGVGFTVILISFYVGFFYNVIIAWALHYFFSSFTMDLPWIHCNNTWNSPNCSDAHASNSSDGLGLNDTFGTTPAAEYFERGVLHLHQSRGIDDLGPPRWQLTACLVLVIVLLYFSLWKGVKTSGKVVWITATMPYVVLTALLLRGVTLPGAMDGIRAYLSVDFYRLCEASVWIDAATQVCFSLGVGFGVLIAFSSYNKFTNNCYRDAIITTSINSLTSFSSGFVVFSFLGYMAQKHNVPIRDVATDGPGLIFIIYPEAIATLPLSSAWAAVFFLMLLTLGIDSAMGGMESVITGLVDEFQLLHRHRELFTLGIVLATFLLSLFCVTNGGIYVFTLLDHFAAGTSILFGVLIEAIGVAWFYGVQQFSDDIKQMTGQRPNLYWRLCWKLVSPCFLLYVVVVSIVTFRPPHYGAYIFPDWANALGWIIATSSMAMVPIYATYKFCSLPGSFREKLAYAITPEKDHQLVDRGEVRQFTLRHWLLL
Experimental: as §1, §2

[3] = target: T3, reuptake of noradrenaline (NA) in synaptosomes (Rattus norvegicus, UniProt Q63380); assay: Inhibition of NA reuptake in synaptosomes; conditions: 3H-NA, read-out: NA-uptake IC50
T3 construct: in synaptosomes as described in WO 97/16451; from tissue
T3 sequence (Q63380 1-617): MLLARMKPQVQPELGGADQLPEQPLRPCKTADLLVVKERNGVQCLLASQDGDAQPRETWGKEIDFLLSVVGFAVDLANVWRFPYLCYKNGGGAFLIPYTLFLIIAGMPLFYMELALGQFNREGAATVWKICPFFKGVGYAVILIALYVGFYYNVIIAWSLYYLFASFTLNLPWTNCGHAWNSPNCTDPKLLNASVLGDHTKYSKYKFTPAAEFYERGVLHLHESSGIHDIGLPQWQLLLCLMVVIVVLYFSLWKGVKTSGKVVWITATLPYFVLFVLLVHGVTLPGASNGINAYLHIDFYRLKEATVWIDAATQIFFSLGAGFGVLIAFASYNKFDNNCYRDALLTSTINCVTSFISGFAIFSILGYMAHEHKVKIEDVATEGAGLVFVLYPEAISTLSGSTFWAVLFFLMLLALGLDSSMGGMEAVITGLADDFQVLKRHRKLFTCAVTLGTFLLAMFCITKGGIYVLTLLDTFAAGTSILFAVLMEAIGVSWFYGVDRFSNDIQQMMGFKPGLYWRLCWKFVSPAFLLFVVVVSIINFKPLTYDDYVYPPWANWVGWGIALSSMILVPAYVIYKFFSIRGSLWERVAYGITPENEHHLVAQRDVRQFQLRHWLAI
Experimental: as §1, §2

T1 sequence (P31652 whole entry): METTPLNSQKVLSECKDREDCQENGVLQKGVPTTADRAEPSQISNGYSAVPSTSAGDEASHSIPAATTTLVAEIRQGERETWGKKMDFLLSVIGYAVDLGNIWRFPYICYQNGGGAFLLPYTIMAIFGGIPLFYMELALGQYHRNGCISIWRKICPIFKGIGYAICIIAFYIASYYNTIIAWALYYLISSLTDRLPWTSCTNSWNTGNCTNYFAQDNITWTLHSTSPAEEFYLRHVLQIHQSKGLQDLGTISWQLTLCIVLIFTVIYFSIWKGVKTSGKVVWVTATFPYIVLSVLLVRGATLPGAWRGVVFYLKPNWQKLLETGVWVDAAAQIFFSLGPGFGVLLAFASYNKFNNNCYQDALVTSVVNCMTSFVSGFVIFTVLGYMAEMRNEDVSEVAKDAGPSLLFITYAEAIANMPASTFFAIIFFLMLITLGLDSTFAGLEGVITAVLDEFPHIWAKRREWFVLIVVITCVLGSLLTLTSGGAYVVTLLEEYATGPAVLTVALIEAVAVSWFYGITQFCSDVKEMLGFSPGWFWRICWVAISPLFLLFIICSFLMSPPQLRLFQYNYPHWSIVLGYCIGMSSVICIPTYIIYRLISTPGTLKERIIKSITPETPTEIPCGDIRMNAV

pIC50 [1]	pIC50 [2]	pIC50 [3]	SMILES
7.89	7.11	6.89	CC1(C)CC(Oc2ccc3cc(O)ccc3n2)CC(C)(C)N1 [2-(2,2,6,6-Tetramethyl-piperidin-4-yloxy)-quinolin-6-ol]
9.17	6.74	7.89	CC1(C)CC(Oc2ccc3ccccc3n2)CC(C)(C)N1 [2-(2,2,6,6-Tetramethyl-piperidin-4-yloxy)-quinoline]

Reference: patent publication US20110136862A1, “NOVEL TETRAMETHYL SUBSTITUTED PIPERIDINE DERIVATIVES AND THEIR USE AS MONOAMINE NEUROTRANSMITTER RE-UPTAKE INHIBITORS” (NEUROSEARCH A/S, priority 2008, published 2011)
